# Target: recombinant human integrin αvβ6 (Homo sapiens (Human), UniProt P06756+P18564)
# Test: Solid phase integrin αvβ6 binding assay
# Settings: IC50 presented in four ranges; read-out: αvβ6 Inhibition IC50 (nM) - range
# Protocol: (§1) Microplates were coated with recombinant human integrin αvβ6 (2 µg/mL) in PBS (100 µL/well 25° C., overnight). The coating solution was removed, washed with wash buffer (0.05% Tween 20; 0.5 mM MnCl2; in 1x TBS). The plate was blocked with 200 µL/well of Block Buffer (1% BSA; 5% sucrose; 0.5 mM MnCl2; in 1x TBS) at 37° C. for 2 h. Dilutions of testing compounds and recombinant TGFβ1 LAP (0.67 µg/mL) in binding buffer (0.05% BSA; 2.5% sucrose; 0.5 mM MnCl2; in 1x TBS) were added. The plate was incubated for 2 hours at 25° C., washed, and incubated for 1 hour with Biotin-Anti-hLAP. Bound antibody was detected by peroxidase-conjugated streptavidin. The IC50 values for testing compounds were calculated by a four-parameter logistic regression.
# The compounds tested were compound samples prepared according to procedures described in the Synthetic Examples section, with the stereochemical purity as indicated in the Examples.
# as §1, with “A third series of exemplary compounds was selected for testing in the solid phase integrin αvβ6 binding assay. The compounds tested were compound samples prepared according to procedures described in the Synthetic Examples section, with the stereochemical purity as indicated in the Examples. As in Example B1, microplates” for “Microplates”
# Sequence of recombinant human integrin αvβ6 (P06756 31-889): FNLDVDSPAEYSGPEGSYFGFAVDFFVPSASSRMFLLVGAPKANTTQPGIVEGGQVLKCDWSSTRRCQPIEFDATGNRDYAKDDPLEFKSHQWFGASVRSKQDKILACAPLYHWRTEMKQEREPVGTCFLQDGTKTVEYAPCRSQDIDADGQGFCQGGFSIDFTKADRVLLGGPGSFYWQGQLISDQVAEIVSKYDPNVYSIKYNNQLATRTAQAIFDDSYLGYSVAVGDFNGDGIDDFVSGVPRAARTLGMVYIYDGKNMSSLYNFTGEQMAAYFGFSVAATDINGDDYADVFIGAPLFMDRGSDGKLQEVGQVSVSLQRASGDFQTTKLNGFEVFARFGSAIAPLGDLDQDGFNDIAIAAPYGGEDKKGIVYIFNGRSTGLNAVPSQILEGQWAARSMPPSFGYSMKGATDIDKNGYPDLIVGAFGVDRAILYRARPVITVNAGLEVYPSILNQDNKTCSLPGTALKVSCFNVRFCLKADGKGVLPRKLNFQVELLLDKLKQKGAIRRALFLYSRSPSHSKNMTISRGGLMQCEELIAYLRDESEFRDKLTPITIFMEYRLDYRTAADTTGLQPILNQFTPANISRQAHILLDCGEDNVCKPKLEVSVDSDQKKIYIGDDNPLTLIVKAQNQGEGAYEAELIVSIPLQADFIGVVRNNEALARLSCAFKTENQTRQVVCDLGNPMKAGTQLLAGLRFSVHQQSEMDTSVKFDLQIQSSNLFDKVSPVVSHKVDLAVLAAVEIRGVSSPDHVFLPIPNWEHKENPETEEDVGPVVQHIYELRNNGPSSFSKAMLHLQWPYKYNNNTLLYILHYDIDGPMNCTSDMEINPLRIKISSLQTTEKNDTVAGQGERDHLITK
# Sequence of recombinant human integrin αvβ6 (P06756 890-992 partner): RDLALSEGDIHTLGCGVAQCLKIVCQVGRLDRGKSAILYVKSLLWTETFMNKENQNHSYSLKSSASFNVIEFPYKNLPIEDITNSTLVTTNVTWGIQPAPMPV
# Sequence of recombinant human integrin αvβ6 (P18564 22-707): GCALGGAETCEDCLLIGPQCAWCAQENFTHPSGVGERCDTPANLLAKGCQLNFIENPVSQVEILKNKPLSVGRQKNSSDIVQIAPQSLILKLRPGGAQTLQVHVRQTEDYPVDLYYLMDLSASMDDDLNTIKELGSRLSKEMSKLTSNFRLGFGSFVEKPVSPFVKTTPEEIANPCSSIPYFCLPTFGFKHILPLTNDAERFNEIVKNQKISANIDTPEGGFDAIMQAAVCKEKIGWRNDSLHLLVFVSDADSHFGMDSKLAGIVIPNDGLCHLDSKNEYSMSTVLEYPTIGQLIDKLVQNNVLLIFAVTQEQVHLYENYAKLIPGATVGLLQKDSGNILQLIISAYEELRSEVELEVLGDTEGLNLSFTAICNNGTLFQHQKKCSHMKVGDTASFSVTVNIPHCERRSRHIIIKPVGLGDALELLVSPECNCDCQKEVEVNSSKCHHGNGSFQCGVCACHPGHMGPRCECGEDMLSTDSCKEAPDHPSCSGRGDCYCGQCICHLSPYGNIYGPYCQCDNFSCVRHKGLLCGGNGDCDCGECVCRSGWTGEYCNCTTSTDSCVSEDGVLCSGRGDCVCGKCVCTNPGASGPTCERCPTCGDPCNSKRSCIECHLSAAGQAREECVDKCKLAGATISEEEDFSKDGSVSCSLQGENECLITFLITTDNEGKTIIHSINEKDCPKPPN
row,Compound,IC50
1,O=C(O)[C@H](CCN(CCCCc1ccc2c(n1)NCCC2)CCOc1ccccc1)Nc1ncnc2ccccc12 [compound 28],< 50 nM
2,COCCN(CCCCc1ccc2c(n1)NCCC2)CC[C@H](Nc1cc(-n2cccn2)ncn1)C(=O)O [compound 44],< 50 nM
3,COCCN(CCCCc1ccc2c(n1)NCCC2)CC[C@H](Nc1cc(C)nc(C(F)(F)F)n1)C(=O)O [compound 26],< 50 nM
4,O=C(O)[C@H](CCN(CCCCc1ccc2c(n1)NCCC2)CCOc1ccc(F)cc1)Nc1ncc(Br)cn1 [compound 144],50 to 250 nM
5,COCCN(CCCCc1ccc2c(n1)NCCC2)CC[C@H](Nc1ccnc2ccccc12)C(=O)O [compound 36],> 1000 nM
6,O=C(O)[C@H](CCN(CCCCc1ccc2c(n1)NCCC2)CCOc1ccccc1)Nc1ccnc(C(F)(F)F)n1 [compound 92],< 50 nM
7,COCCN(CCCCc1ccc2c(n1)NCCC2)CC[C@H](Nc1ncnc2c(Cl)cccc12)C(=O)O [compound 38],< 50 nM
8,O=C(O)[C@H](CCN(CCCCc1ccc2c(n1)NCCC2)CCOc1ccccn1)Nc1ncnc2ccccc12 [compound 49],< 50 nM
9,Cc1nc(N[C@@H](CCN(CCCCc2ccc3c(n2)NCCC3)CCOc2ccc(F)cc2)C(=O)O)c2ccc(F)cc2n1 [compound 40],< 50 nM
10,O=C(O)[C@H](CCN(CCCCc1ccc2c(n1)NCCC2)CCOC(F)F)Nc1ncnc2ccccc12 [compound 35],< 50 nM
11,CO[C@H](C)CN(CCCCc1ccc2c(n1)NCCC2)CC[C@H](Nc1ncnc2[nH]ncc12)C(=O)O [compound 71],< 50 nM
12,CO[C@H](C)CN(CCCCc1ccc2c(n1)NCCC2)CC[C@H](Nc1nccnc1C#N)C(=O)O [compound 76],< 50 nM
13,O=C(O)[C@H](CCN(CCCCc1ccc2c(n1)NCCC2)CC(F)F)Nc1nc(-c2cccnc2)nc2ccccc12 [compound 99],250 to 1000 nM
14,O=C(O)[C@H](CCN(CCCCc1ccc2c(n1)NCCC2)CCOc1ccccc1)Nc1cc(-n2cccn2)ncn1 [compound 91],< 50 nM
15,O=C(O)[C@H](CCN(CCCCc1ccc2c(n1)NCCC2)CC(F)F)Nc1ccnc(C(F)(F)F)n1 [compound 97],> 1000 nM
16,Cc1ccc2c(N[C@@H](CCN(CCCCc3ccc4c(n3)NCCC4)CCOc3ccc(C)nc3)C(=O)O)nc(C)nc2c1 [compound 56],< 50 nM
17,O=C(O)[C@H](CCN(CCCCc1ccc2c(n1)NCCC2)CCC(F)F)Nc1ncnc2ccccc12 [compound 29],< 50 nM
18,O=C(O)[C@H](CCN(CCCCc1ccc2c(n1)NCCC2)CC1(F)COC1)Nc1ncnc2ccccc12 [compound 147],50 to 250 nM
19,COCCN(CCCCc1ccc2c(n1)NCCC2)CC[C@H](Nc1ncnc2cc(Cl)ccc12)C(=O)O [compound 37],50 to 250 nM
20,O=C(O)[C@H](CCN(CCCCc1ccc2c(n1)NCCC2)CCOCC(F)(F)F)Nc1ncnc2ccccc12 [compound 39],< 50 nM
21,O=C(O)[C@H](CCN(CCCCc1ccc2c(n1)NCCC2)CCOc1ccccn1)Nc1ncnc2c(Cl)cccc12 [compound 48],< 50 nM
22,N#Cc1cnc(N[C@@H](CCN(CCCCc2ccc3c(n2)NCCC3)CC(F)F)C(=O)O)nc1 [compound 118],> 1000 nM
23,CO[C@H](C)CN(CCCCc1ccc2c(n1)NCCC2)CC[C@H](Nc1ncc(C(F)(F)F)cn1)C(=O)O [compound 85],250 to 1000 nM
24,CO[C@@H](C)CN(CCCCc1ccc2c(n1)NCCC2)CC[C@H](Nc1ncnc2ccccc12)C(=O)O [compound 25],< 50 nM
25,O=C(O)[C@H](CCN(CCCCc1ccc2c(n1)NCCC2)CCOc1cncc(F)c1)Nc1ncnc2ccccc12 [compound 58],< 50 nM
26,Cc1ncccc1OCCN(CCCCc1ccc2c(n1)NCCC2)CC[C@H](Nc1ncnc2cccnc12)C(=O)O [compound 54],< 50 nM
27,COCCN(CCCCc1ccc2c(n1)NCCC2)CC[C@H](Nc1nccc2ccccc12)C(=O)O [compound 34],> 1000 nM
28,CS(=O)(=O)CCN(CCCCc1ccc2c(n1)NCCC2)CC[C@H](Nc1ncc(Br)cn1)C(=O)O [compound 103],> 1000 nM
29,Cc1ccc(OCCN(CCCCc2ccc3c(n2)NCCC3)CC[C@H](Nc2ncnc3ccccc23)C(=O)O)cn1 [compound 59],< 50 nM

# Next, values leading:
row,IC50,Compound
1,250 to 1000 nM,O=C(O)[C@H](CCN(CCCCc1ccc2c(n1)NCCC2)CC(F)F)Nc1ncnc2[nH]ncc12 [compound 112]
2,< 50 nM,COCCN(CCCCc1ccc2c(n1)NCCC2)CC[C@H](Nc1ncnc2c(C(F)(F)F)cccc12)C(=O)O [compound 15]
3,< 50 nM,O=C(O)[C@H](CCN(CCCCc1ccc2c(n1)NCCC2)CCOCC(F)(F)F)Nc1ncnc2cccnc12 [compound 51]
4,50 to 250 nM,O=C(O)[C@H](CCN(CCCCc1ccc2c(n1)NCCC2)C1CC1)Nc1ccnc(C(F)(F)F)n1 [compound 115]
5,< 50 nM,COc1ccc2c(N[C@@H](CCN(CCCF)CCCCc3ccc4c(n3)NCCC4)C(=O)O)ncnc2c1 [compound 41]
6,> 1000 nM,CO[C@H](C)CN(CCCCc1ccc2c(n1)NCCC2)CC[C@H](Nc1cc(-c2ccccc2)ncn1)C(=O)O [compound 128]
7,< 50 nM,Cc1cc(C)n(CCN(CCCCc2ccc3c(n2)NCCC3)CC[C@H](Nc2ncnc3ccccc23)C(=O)O)n1 [compound 45]
8,50 to 250 nM,O=C(O)[C@H](CCN(CCCCc1ccc2c(n1)NCCC2)CCC(F)F)Nc1ccnc(C2CC2)n1 [compound 135]
9,< 50 nM,CO[C@H](C)CN(CCCCc1ccc2c(n1)NCCC2)CC[C@H](Nc1nc(-c2cccnc2)nc2ccccc12)C(=O)O [compound 100]
10,50 to 250 nM,O=C(O)[C@H](CCN(CCCCc1ccc2c(n1)NCCC2)CCC(F)F)Nc1ccnc(C(F)(F)F)n1 [compound 134]
11,< 50 nM,Cn1ncc2c(N[C@@H](CCN(CCCCc3ccc4c(n3)NCCC4)CCOc3ccc(F)cc3)C(=O)O)ncnc21 [compound 123]
12,< 50 nM,Cc1nc(N[C@@H](CCN(CCCCc2ccc3c(n2)NCCC3)CCOc2cccnc2C)C(=O)O)c2ccc(F)cc2n1 [compound 53]
13,< 50 nM,COCCN(CCCCc1ccc2c(n1)NCCC2)CC[C@H](Nc1nc(C)nc2cc(F)ccc12)C(=O)O [compound 12]
14,< 50 nM,COCCN(CCCCc1ccc2c(n1)NCCC2)CC[C@H](Nc1cc(C(F)(F)F)nc(C)n1)C(=O)O [compound 22]
15,< 50 nM,CO[C@H](C)CN(CCCCc1ccc2c(n1)NCCC2)CC[C@H](Nc1ncncc1-c1ccccc1)C(=O)O [compound 81]
16,< 50 nM,O=C(O)[C@H](CCN(CCCCc1ccc2c(n1)NCCC2)CCOc1ccccc1)Nc1ncc(Br)cn1 [compound 83]

row,IC50,Compound
1,< 50 nM,COCCN(CCCCc1ccc2c(n1)NCCC2)CC[C@H](Nc1cc(C(F)F)ncn1)C(=O)O [compound 23]
2,50 to 250 nM,O=C(O)[C@H](CCN(CCCCc1ccc2c(n1)NCCC2)CCC(F)F)Nc1ncc(C(F)(F)F)cn1 [compound 132]
3,50 to 250 nM,CN(C)C(=O)CN(CCCCc1ccc2c(n1)NCCC2)CC[C@H](Nc1ncc(C(F)(F)F)cn1)C(=O)O [compound 141]
4,< 50 nM,CO[C@H](C)CN(CCCCc1ccc2c(n1)NCCC2)CC[C@H](Nc1nc(C)nc2cc(F)ccc12)C(=O)O [compound 65]
5,< 50 nM,COCCN(CCCCc1ccc2c(n1)NCCC2)CC[C@H](Nc1ncnc2cc(F)c(F)cc12)C(=O)O [compound 21]
6,> 1000 nM,Cn1ncc2c(N[C@@H](CCN(CCCCc3ccc4c(n3)NCCC4)CC(F)F)C(=O)O)ncnc21 [compound 88]
7,> 1000 nM,CS(=O)(=O)CCN(CCCCc1ccc2c(n1)NCCC2)CC[C@H](Nc1cc(-n2cccn2)ncn1)C(=O)O [compound 126]
8,< 50 nM,CO[C@H](C)CN(CCCCc1ccc2c(n1)NCCC2)CCC(Nc1ncnc2ccccc12)C(=O)O (stereo partly shown) [compound 62]
9,< 50 nM,COCCN(CCCCc1ccc2c(n1)NCCC2)CC[C@H](Nc1ncnc2cccc(F)c12)C(=O)O [compound 18]
10,< 50 nM,COC[C@@H](F)CN(CCCCc1ccc2c(n1)NCCC2)CC[C@H](Nc1ncncc1-c1ccccc1)C(=O)O [compound 110]
11,< 50 nM,Cc1ccc(OCCN(CCCCc2ccc3c(n2)NCCC3)CC[C@H](Nc2ncnc3cccnc23)C(=O)O)cn1 [compound 57]
12,< 50 nM,O=C(O)[C@H](CCN(CCCCc1ccc2c(n1)NCCC2)CCOc1cncc(F)c1)Nc1ncnc2cccnc12 [compound 60]
13,< 50 nM,O=C(O)[C@H](CCN(CCCCc1ccc2c(n1)NCCC2)CC(CO)CO)Nc1ncnc2ccccc12 [compound 130]
14,< 50 nM,COCCN(CCCCc1ccc2c(n1)NCCC2)CC[C@H](Nc1ccnc(C(F)(F)F)n1)C(=O)O [compound 24]
15,< 50 nM,CO[C@H](C)CN(CCCCc1ccc2c(n1)NCCC2)CC[C@H](Nc1ncnc2c1cnn2C)C(=O)O [compound 74]
16,< 50 nM,CO[C@H](C)CN(CCCCc1ccc2c(n1)NCCC2)CC[C@H](Nc1ncnc2cn[nH]c12)C(=O)O [compound 79]

# — patent US20230293519A1, “INTEGRIN INHIBITORS AND USES THEREOF IN COMBINATION WITH OTHER AGENTS” (Pliant Therapeutics, Inc., priority 2021, published 2023)
